Measured values as given in PMC6522941, “Design, synthesis, and anticancer evaluation of novel quinoline derivatives of ursolic acid with hydrazide, oxadiazole, and thiadiazole moieties as potent MEK inhibitors” (Journal of Enzyme Inhibition and Medicinal Chemistry, 2019).

Experiments:
QSG-7701 cells = assay: MTT cytotoxic assay, normal hepatocyte QSG-7701; assay type: cell-based, human
Experimental: (§1) Human breast cancer cell line (MDA-MB-231), cervical carcinoma cell line (HeLa), the liver cancer cell line (SMMC-7721) and normal hepatocyte cell line (QSG-7701) were maintained in Dulbecco Modified Eagle Medium (DMEM) containing 4.0 mM L-Glutamine and 4500 mg/L Glucose supplemented with 10% (v/v) foetal bovine serum (FBS) and 100 U/mL penicillin/streptomycin at 37 °C in humidified atmosphere of 5% CO2 and 95% air.
(§2) Exponentially growing MDA-MB-231, Hela and SMMC-7721 cell lines were seeded into 96-well plate for 100 μL and treated with different concentrations of the synthetic compounds for 72 h, and then 10 μL of MTT (10 mg/mL) was added and incubation for 3 ∼ 4 h at 37 °C. The generated purple formazan crystals from viable can be dissolved by adding 100 μL DMSO. The plates were swirled gently for 5 min and quantified by measuring the OD of the plates at the wavelength of 540 nm. Each concentration was repeated in three wells and the same experimental condition was provided for all compounds. The results were expressed as IC50 values with standard deviations, which was defined as the concentration at which 50% survival of cells was discerned. Etoposide was co-assayed as positive control.
(§3) The in vitro cytotoxic activity of derivatives 3a–d, 4a–h, 5a–h, and 6a–h were evaluated by MTT assay against human breast cancer cell line (MDA-MB-231), cervical carcinoma cell line (HeLa), hepatocarcinoma cell line (SMMC-7721) and human normal hepatocyte cell line (QSG-7701). The anticancer drug etoposide was co-assayed as the positive control. All tested compounds were dissolved in DMSO and the stock solutions were diluted by DMEM medium before treatment of the cultured cells.

HeLa cells [1] = assay: Annexin V-FITC/PI dual staining apoptosis assay; assay type: cell-based, human; conditions: 48 h, control 6.44
Experimental: The extent of apoptosis was quantitatively measured using Annexin V-FITC/PI dual staining assay. HeLa cells were seeded into a six-well plate at 5 × 10^5 cells per well in 10% foetal calf serum (FBS)-DMEM into six-well plates and treated with different concentrations of the indicated compound 4d for 48 h. The cells were detached with 0.25% trypsin, washed with ice-cold PBS for twice and then resuspended in 1 × Binding buffer ([…]). The cells were stained with 5 μL of Annexin V-FITC and 5 μL of PI ([…]) to each tube. The cells were gently vortexed and incubated in the dark at room temperature for 15 min and then keep them at 4 °C. The samples were analysed by a flow cytometer (Becton-Dickinson FACSCalibur, Totowa, NJ, USA) and data were analysed using the FlowJo software.
The Annexin V-FITC/PI dual staining assay on HeLa cells treated with compound 4d was carried out to examine the association of compound 4d-mediated cytotoxicity with induction of apoptosis.

[2] = system: Cytochrome c, Bax, Bcl-2, Caspase-3, Caspase-9 in HeLa cells; assay: Western blot of mitochondrial apoptosis markers; assay type: cell-based, human; conditions: 0.1 and 0.2 μM, 48 h
Experimental: HeLa cells were seeded at a density of 5 × 10^6 cells per well and attached for 8 h, and then treated with different concentrations of compound 4d for 48 h. After the treatment, the cells were harvested and washed twice with PBS. The harvested cells were lysed with radio-immunoprecipitation assay (RIPA) lysis buffer (Beyotime Biotech., Nantong, China) with 1% cocktail (Sigma-Aldrich, St. Louis, MO, USA). Whole-cell protein lysates were prepared and centrifuged at 12,000 rpm for 10 min at 4 °C. The total proteins were determined using Bradford reagent (Bio-Rad Laboratories, Inc., Hercules, CA, USA). Exactly 40 μg of protein per lane was separated through sodium dodecyl sulphate-polyacrylamide gel electrophoresis and then transferred onto a polyvinylidene difluoride membrane (Millipore, Bedford, MA, USA). The membranes were incubated with each antibody and detected through immunoblot analysis. All of the antibodies were purchased from Cell signalling Technology, Inc. (Boston, MA, USA) and diluted in accordance with the manufacturer’s instruction. Proteins were visualised using a C-Digit® imaging system (LI-COR, Lincoln, NE, USA).
To further explore whether compound 4d induced apoptosis via the mitochondrial signalling pathway, a number of key protein markers involved in mitochondria-mediated apoptosis were examined by Western blot analysis. The Bcl-2 family members are important regulators of the mitochondrial apoptotic pathway. Two most important members of Bcl-2 family, the anti-apoptotic protein Bcl-2 and the pro-apoptotic protein Bax, are key regulators of this progress. As shown in Figure 6(a), the expression level of Bax was elevated in HeLa cells compared with the control group, whereas the expression level of Bcl-2 was decreased after treatment with compound 4d for 48 h. […] Moreover, cytochrome c is reported as a key protein involved in the activation of the downstream caspases that trigger apoptosis. Caspases are a family of cysteinyl aspartate-specific proteases involved in apoptosis, which can be classified into groups of initiators (caspases 8, 9, and 10) and executioners (caspases 3, 6, and 7)[48]^,[49]. In this assay, we also examined the roles of cytochrome c, caspase-3, and caspase-9 in the cellular response to compound 4d.

HeLa cells [3] = assay: ROS generation assay (DCFH-DA); assay type: cell-based, human; conditions: 0.2 μM, 48 h
Experimental: ROS generation assay was performed by using the reactive oxygen species assay kit (Beyotime Biotech., Nantong, China). Intracellular ROS generation was tested through dichlorodihydro fluorescein diacetate (DCFH-DA) assay. DCFH-DA is taken up by HeLa cells, and then activated by esterase-mediated cleavage of acetate to form DCFH, which is trapped in the cells. DCFH is converted to fluorescein DCF in the presence of ROS. HeLa cells were seeded in six-well plates and incubated with different concentrations of compound 4d for 48 h. After removing the compound solution, cells were treated with 10 μM of DCFH-DA at 37 °C for 20 min. Subsequently, the cells were washed with PBS for three times and then exposed to light. Immediately after light exposure, the fluorescence intensity of dichlorofluorescein (DCF) was measured with excitation at 488 nm and emission at 525 nm by a flow cytometry (Becton-Dickinson FACSCalibur, Totowa, NJ, USA).
ROS has been reported to be involved in early stages of apoptosis in many cellular systems. […] HeLa cells were exposed to compound 4d at 0 ∼ 0.2 μM concentrations for 48 h and the intracellular fluorescence intensity was quantitatively analysed by flow cytometry. […]

HeLa cells [4] = assay: MTT cytotoxic assay, HeLa; assay type: cell-based; conditions: Homo sapiens, 72 h
Experimental: as §1, §2, §3

## CC(=O)NNC(=O)C12CCC(C)C(C)C1C1=CCC3C4(C)Cc5cc6cc(Cl)ccc6nc5C(C)(C)C4CCC3(C)C1(C)CC2 (centres unmarked) [Compound 4d, N-[5′-chloro-ursa-12-en-(2,3)-quinoline-28-oyl]-acetohydrazide]
QSG-7701 cells; Homo sapiens, QSG7701, MTT, normal hepatocyte cell line
  IC50: 10.8 ± 0.72 µM
QSG-7701 cells; IC50 (QSG-7701)/IC50 (HeLa)
  Selectivity: 134.5
HeLa cells [1]; 0.05 μM
  percentage of early and late apoptotic cells: 37.56%
HeLa cells [1]; 0.1 μM
  percentage of early and late apoptotic cells: 58.31%
HeLa cells [1]; 0.2 μM
  percentage of early and late apoptotic cells: 74.22%
[2]
  level of caspase-3: significantly increased
  level of caspase-9: significantly increased
  ratio of Bax/Bcl-2: increased in a dose-dependent manner
[2]; compared with control
  expression level of Bax: elevated
  expression level of Bcl-2: decreased
[2]; cytosol
  level of cytochrome c: significantly increased
HeLa cells [3]
  increase of mean fluorescence intensity compared to the control group: 84%
HeLa cells [3]; control 13.18
  % relative ROS raised cells: 49.66%
HeLa cells [4]
  IC50: 0.08 ± 0.01 µM
